# Reference: US9834541B2, “2-aminopyridine compounds” (Merck Patent GmbH, priority 2012, dated 2017)
# Key:
# [1] = system: Wnt pathway; test: Cellular assay for Wnt pathway activity, LS174T-shl-fLuc clone 5 (LS174T-L5) luciferase reporter assay; format: cell-based; conditions: Homo sapiens; LS174T TCF luciferase reporter cells, 24 hours incubation
# Outline: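 LS174T human colon cancer cells stably carrying a 16×TCF/LEF-driven short-half-life firefly luciferase reporter were treated with compounds at 30 μM to 1 nM for 24 hours. Luciferase luminescence normalized to vehicle control; IC50 from curve fitting.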
# [2] = CLint (intrinsic clearance) assay, liver microsomal incubation; format: in vitro ADME, human; conditions: for microsomal CLint at 0.8 μM: liver microsomes, pH 7.4, human hepatic microsomes, 0.5 mg/mL protein, class symbols
# Outline: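 Human liver microsomes (0.5 mg/mL protein) in 0.1 M potassium phosphate pH 7.4 with 1 mM MgCl2 were incubated at 37 °C with NADPH and compound (diluted to 0.8 μM), with no-cofactor controls. Samples were acetonitrile-quenched at 0–30 min. CLint (μL/min/mg protein) = k·1000/protein concentration, from the LC-MS/MS peak-area decline slope.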
# [3] = system: Wnt pathway; conditions: see Table A on page 93 of WO 2010/041054; cited from earlier work
Structure (SMILES),IC50 [1] [nM],microsomal CLint at 0.8 μM [2] [µL/min/mg],"human hepatic microsomal intrinsic clearance (CLint), in words ([2]; statement in the related-art section)","inhibitory activity, in words [3]"
"CCn1cc(-c2ccc(-c3cnc(N)c(Cl)c3N3CCC4(CCNC4=O)CC3)cc2)cn1 [Compound 70, 8-{2-Amino-3-chloro-5-[4-(1-ethyl-1H-pyrazol-4-yl)-phenyl]-pyridin-4-yl}-2,8-diaza-spiro[4.5] decan-1-one]",23,≥ 150,,
"CCn1ncc2cc(-c3cnc(N)c(Cl)c3N3CCC4(CCNC4=O)CC3)ccc21 [Compound 72, 8-[2-Amino-3-chloro-5-(1-ethyl-1H-indazol-5-yl)-pyridin-4-yl]-2,8-diaza-spiro[4.5] decan-1-one]",155,100 to 150,,
"CC(C)n1ncc2ccc(-c3cnc(N)c(Cl)c3N3CCC4(CCNC4=O)CC3)cc21 [Compound 73, 8-[2-Amino-3-chloro-5-(1-isopropyl-1H-indazol-6-yl)-pyridin-4-yl]-2,8-diaza-spiro[4.5] decan-1-one]",54,100 to 150,,
"O=C1NCCC12CCN(c1c(Cl)cncc1-c1ccccc1)CC2 [Compound E60, 8-(3-Chloro-5-phenyl-pyridin-4-yl)-2,8-diaza-spiro[4.5]decan-1-one, reference compound]",230,≥ 150,high,promising

# Continued, in another order:
IC50 [1] [nM],microsomal CLint at 0.8 μM [2] [µL/min/mg],"human hepatic microsomal intrinsic clearance (CLint), in words ([2]; statement in the related-art section)",Structure (SMILES),"inhibitory activity, in words [3]"
59,< 10,,"CCN1Cc2cc(-c3cnc(N)c(Cl)c3N3CCC4(CCNC4=O)CC3)ccc2S1(=O)=O [Compound 68, 8-[2-Amino-3-chloro-5-(2-ethyl-1,1-dioxo-2,3-dihydro-1H-1l6-benzo[d]isothiazol-5-yl)-pyridin-4-yl]-2,8-diaza-spiro[4.5]decan-1-one]",
52,50 to 100,,"CC(C)n1cc(-c2ccc(-c3cnc(N)c(Cl)c3N3CCC4(CCNC4=O)CC3)cc2)cn1 [Compound 69, 8-{2-Amino-3-chloro-5-[4-(1-isopropyl-1H-pyrazol-4-yl)-phenyl]-pyridin-4-yl}-2,8-diaza-spiro[4.5] decan-1-one]",
181,10 to 50,,"CCn1ncc2ccc(-c3cnc(N)c(Cl)c3N3CCC4(CCNC4=O)CC3)cc21 [Compound 71, 8-[2-Amino-3-chloro-5-(1-ethyl-1H-indazol-6-yl)-pyridin-4-yl]-2,8-diaza-spiro[4.5] decan-1-one]",
